Laboratory results reported in patent US11254668B2, “Pyrazolo[1,5-A]pyrazin-4-yl and related derivatives” (Pfizer Inc., priority 2017, dated 2022).

Legend:
Format in all cases: biochemical
Conditions in all cases: JAK Caliper enzyme assay
JAK3 = JAK3 (Homo sapiens (Human), UniProt P52333); test: JAK Caliper Enzyme Assay at 1 mM ATP, JAK3
In short: (§1)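 Recombinant human kinase domains phosphorylated a fluorescent synthetic peptide at room temperature, with enzyme level and time tuned to 20% to 30% conversion; EDTA stop buffer ended reactions. Mobility-shift separation gave percent product from peak heights, normalised to DMSO and positive controls, and IC50s came from concentration–effect curves.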

JAK2 = JAK2 (Homo sapiens (Human), UniProt O60674); test: JAK Caliper Enzyme Assay at 1 mM ATP, JAK2
In short: (§2)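 First, compound was incubated at room temperature with recombinant human kinase domain, a synthetic peptide and 1 mM ATP until 20–30% of peptide was phosphorylated. Next, EDTA stopped the reaction. Finally, electrophoretic separation quantified product, and percent effect relative to controls was plotted against concentration.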

JAK1 = JAK1 (Homo sapiens (Human), UniProt P23458); test: JAK Caliper Enzyme Assay at 1 mM ATP, JAK1
In short: as §1

TYK2 = TYK2 (Homo sapiens (Human), UniProt P29597); test: JAK Caliper Enzyme Assay at 1 mM ATP, TYK2
In short: as §2

JAK2, sequence (O60674 849-1124): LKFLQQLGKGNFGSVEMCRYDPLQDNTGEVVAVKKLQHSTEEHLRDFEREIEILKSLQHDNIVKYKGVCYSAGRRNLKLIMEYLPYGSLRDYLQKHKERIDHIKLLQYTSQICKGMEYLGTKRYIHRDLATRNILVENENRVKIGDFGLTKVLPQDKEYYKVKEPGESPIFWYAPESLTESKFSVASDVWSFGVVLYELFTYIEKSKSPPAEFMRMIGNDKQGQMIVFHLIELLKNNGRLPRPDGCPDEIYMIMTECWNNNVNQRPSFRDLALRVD
JAK3, sequence (P52333 822-1111): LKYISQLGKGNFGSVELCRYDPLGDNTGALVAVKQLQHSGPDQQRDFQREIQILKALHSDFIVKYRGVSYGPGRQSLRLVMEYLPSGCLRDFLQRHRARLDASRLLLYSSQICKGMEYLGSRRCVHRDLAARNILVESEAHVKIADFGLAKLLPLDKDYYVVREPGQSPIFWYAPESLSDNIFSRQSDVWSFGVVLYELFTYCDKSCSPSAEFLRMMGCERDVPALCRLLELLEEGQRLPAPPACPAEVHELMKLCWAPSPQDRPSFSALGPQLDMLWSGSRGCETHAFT
JAK1, sequence (P23458 875-1153): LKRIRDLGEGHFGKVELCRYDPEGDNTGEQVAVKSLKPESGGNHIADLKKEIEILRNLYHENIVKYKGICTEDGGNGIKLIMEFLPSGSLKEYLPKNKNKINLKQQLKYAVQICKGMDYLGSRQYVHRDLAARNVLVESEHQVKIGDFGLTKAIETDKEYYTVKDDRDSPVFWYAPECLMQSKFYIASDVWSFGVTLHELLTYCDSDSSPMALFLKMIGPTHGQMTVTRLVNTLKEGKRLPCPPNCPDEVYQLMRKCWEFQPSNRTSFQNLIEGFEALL
TYK2, sequence (P29597 897-1176): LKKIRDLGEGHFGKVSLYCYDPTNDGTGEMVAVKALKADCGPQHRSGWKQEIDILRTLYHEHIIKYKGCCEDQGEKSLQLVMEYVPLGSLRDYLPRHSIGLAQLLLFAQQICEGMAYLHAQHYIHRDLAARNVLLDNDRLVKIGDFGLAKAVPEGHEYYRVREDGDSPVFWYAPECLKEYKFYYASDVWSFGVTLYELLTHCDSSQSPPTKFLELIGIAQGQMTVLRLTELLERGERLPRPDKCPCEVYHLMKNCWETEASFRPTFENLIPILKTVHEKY

Row | SMILES | IC50 (JAK3) [nM] | IC50 (JAK2) [nM] | IC50 (JAK1) [nM] | IC50 (TYK2) [nM]
1 | N#CC[C@]1(n2ncc(-c3cc(-c4ncc(OCCO)cn4)cc4ncccc34)n2)C[C@@H](C#N)C1 [Example 406, cis-3-(cyanomethyl)-3-(4-{7-[5-(2-hydroxyethoxy)pyrimidin-2-yl]quinolin-5-yl}-2H-1,2,3-triazol-2-yl)cyclobutanecarbonitrile] | > 10000 | > 10000 | > 10000 | 2150
2 | COc1nc(-c2cc(-c3cnn([C@]4(CC#N)C[C@H](C#N)C4)n3)c3cccnc3c2)cnc1N [Example 407, cis-3-{4-[7-(5-amino-6-methoxypyrazin-2-yl)quinolin-5-yl]-2H-1,2,3-triazol-2-yl}-3-(cyanomethyl)cyclobutanecarbonitrile] | > 10000 | 1010 | 1200 | 257
3 | COc1nc(-c2cc(-c3cnn([C@]4(CC#N)C[C@@H](C#N)C4)n3)c3cccnc3c2)cnc1N [Example 408, trans-3-{4-[7-(5-amino-6-methontpyrazin-2-yl)quinolin-5-yl]-2H-1,2,3-triazol-2-yl}-3-(cyanomethyl)cyclobutanecarbonitrile] | > 10000 | > 10000 | > 10000 | 2090
4 | CS(=O)(=O)N1CC(CC#N)(n2ncc(-c3cc(-c4ccc(=O)[nH]c4)cc4ncccc34)n2)C1 [Example 409, [1-(methylsulfonyl)-3-{4-[7-(6-oxo-1,6-dihydropyridin-3-yl)quinolin-5-yl]-2H-1,2,3-triazol-2-yl}azetidin-3-yl]acetonitrile] | > 10000 | 982 | 2610 | 53
5 | N#CC[C@]1(n2ncc(-c3cc(-c4cc[nH]c(=O)c4)cc4ncccc34)n2)C[C@@H](C#N)C1 [Example 410, cis-3-(cyanomethyl)-3-{4-[7-(2-oxo-1,2-dihydropyridin-4-yl)quinolin-5-yl]-2H-1,2,3-triazol-2-yl}cyclobutanecarbonitrile] | > 10000 | 207 | 2340 | 39
6 | N#CC[C@]1(n2ncc(-c3cc(-c4cc[nH]c(=O)c4)cc4ncccc34)n2)C[C@H](C#N)C1 [Example 411, trans-3-(cyanomethyl)-3-{4-[7-(2-oxo-1,2-dihydropyridin-4-yl)quinolin-5-yl]-2H-1,2,3-triazol-2-yl}cyclobutanecarbonitrile] | > 10000 | 1690 | > 10000 | 257
7 | Cn1cc(-c2cc(-c3cnn(C4(CC#N)CN(S(C)(=O)=O)C4)n3)c3cccnc3c2)ccc1=O [Example 412, [3-{4-[7-(1-methyl-6-oxo-1,6-dihydropyridin-3-yl)quinolin-5-yl]-2H-1,2,3-triazol-2-yl}-1-(methylsulfonyl)azetidin-3-yl]acetonitrile] | > 10000 | 1290 | 3080 | 167

Next, values leading:

Row | IC50 (JAK3) [nM] | IC50 (JAK2) [nM] | IC50 (JAK1) [nM] | IC50 (TYK2) [nM] | SMILES
8 | > 10000 | > 10000 | > 10000 | 7190 | Cc1cncc(-c2cc(-c3cnn([C@]4(CC#N)C[C@@H](C#N)C4)n3)c3cccnc3c2)n1 [Example 403, trans-3-(cyanomethyl)-3-{4-[7-(6-methylpyrazin-2-yl)quinolin-5-yl]-2H-1,2,3-triazol-2-yl}cyclobutanecarbonitrile]
9 | > 10000 | > 10000 | > 10000 | 7400 | Cc1ncc(N)nc1-c1cc(-c2cnn([C@]3(CC#N)C[C@H](C#N)C3)n2)c2cccnc2c1 [Example 404, cis-3-{4-[7-(6-amino-3-methylpyrazin-2-yl)quinolin-5-yl]-2H-1,2,3-triazol-2-yl}-3-(cyanomethyl)cyclobutanecarbonitrile]
10 | > 10000 | > 10000 | > 10000 | 3060 | COc1ncc(-c2cc(-c3cnn(C4(CC#N)CN(S(C)(=O)=O)C4)n3)c3cccnc3c2)cn1 [Example 405, [3-{4-[7-(2-methoxypyrimidin-5-yl)quinolin-5-yl]-2H-1,2,3-triazol-2-yl}-1-(methylsulfonyl)azetidin-3-yl]acetonitrile]
